Reference: US9127044B2, “Cyclic depsipeptides” (NOVARTIS AG, priority 2007, dated 2015)
Where “and” joins values, the source holds several entries; their conditions need not be identical. Equal entries are not always repeated.

Key:
[1] = target: human kallikrein 7 (Homo sapiens, UniProt P49862); assay: Kallikrein-7 inhibitory activity in vitro (fluorescence-quenched substrate); assay type: biochemical
[2] = test system: Crl:NMRI mice; assay: Anti-inflammatory activity in murine model of allergic contact dermatitis (ACD), oxazolone; assay type: in vivo; conditions: for Δ Auricular weights Mean (SD): 10 μl topical 30 min after challenge, n: 8 animals per group; for % Inhibition of inflammatory swelling Mean ± SE: single topical application, p<0.001 vs solvent-treated animals
Description: Method: Crl:NMRI mice were sensitized on the shaved abdomen with 50 μl of 2% oxazolone on day 1 and challenged with 10 μl oxazolone on the inner surface of the right ear on day 8. The unchallenged left ears served as normal controls and dermatitis was evaluated from the difference in auricular weight (taken as a measure of inflammatory swelling) on day 9. The animals were treated topically with 10 μl test compound or the solvent only 30 min after the challenge. The efficacy of the treatment was calculated as the percentage inhibition of inflammatory auricular swelling relative to animals treated with the vehicle alone.

Chain of human kallikrein 7 (P49862 30-253): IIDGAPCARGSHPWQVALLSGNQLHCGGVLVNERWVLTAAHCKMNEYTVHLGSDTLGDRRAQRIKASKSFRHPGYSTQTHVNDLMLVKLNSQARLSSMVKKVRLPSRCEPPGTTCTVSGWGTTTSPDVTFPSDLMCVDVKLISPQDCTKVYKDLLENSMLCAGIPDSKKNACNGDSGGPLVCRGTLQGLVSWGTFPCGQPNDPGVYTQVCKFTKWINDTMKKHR

Q: Which IC50 ([1]; hKallikrein7 IC50, Table 10) does the source give for CCC(C)[C@@H]1NC(=O)[C@H](Cc2ccc(O)cc2)N(C)C(=O)[C@H](C(C)CC)N2C(=O)C(CC[C@@H]2O)NC(=O)[C@H](CC(C)C)NC(=O)[C@@H](NC(=O)[C@H](CCC(N)=O)NC(=O)C(C)C)[C@@H](C)OC1=O (stereo partly drawn) [formula II] here?
A: 1 nM

Q: And the IC50 ([1]; hKallikrein7 IC 50, Table 11)?
A: 1 nM

Q: And the “Δ Auricular weights Mean (SD)” value ([2]; 10 mM)?
A: 17.0 (4.8)

Q: And the “% Inhibition of inflammatory swelling Mean ± SE” value ([2]; 10 mM)?
A: 40% and 40 ± 6.9%

Q: What about the “Δ Auricular weights Mean (SD)” value ([2]; 30 mM) of the same compound?
A: 15.3 (5.4)

Q: What about the “% Inhibition of inflammatory swelling Mean ± SE” value ([2]; 30 mM) of the same compound?
A: 46% and 46 ± 7.5%
